# What was measured:
# RSV = assay: Anti-RSV antiviral activity assay (syncytial formation, HEp2 cells); type: cell-based, respiratory syncytial virus; conditions: purified peptides
# Experimental: Anti-RSV Antiviral Activity Assays:
# The assay utilized herein tested the ability of the peptides to disrupt the ability of HEp2 cells acutely infected with RSV (i.e., cells which are infected with a multiplicity of infection of greater than 2) to fuse and cause syncytial formation on a monolayer of uninfected an uninfected line of Hep-2 cells. The lower the observed level of fusion, the greater the antiviral activity of the peptide was determined to be. […]
# After incubation, cells in control wells were checked for fusion centers, media was removed from the wells, followed by addition, to each well, of either Crystal Violet stain or XTT. […] The number of syncytia per well were then counted, using a dissecting microscope.
# With respect to XTT (2,3-bis[2-Methoxy-4-nitro-5-sulfophenyl]-2H-tetrazolium-5-carboxyanilide inner salt), 50 μl XTT (1 mg/ml in RPMI buffered with 100 mM HEPES, pH 7.2-7.4, plus 5% DMSO) were added to each well. The OD450/690 was measured (after blanking against growth medium without cells or reagents, and against reagents) according to standard procedures. […]
# [1] = Analytical ultracentrifugation (sedimentation equilibrium); type: physicochemical
# Experimental: Analytical Ultracentrifugation:
# Sedimentation equilibrium experiments were performed on a Beckman Optima XL-A analytical ultracentrifuge at 4° C. Six-channel cells (12 mm optical path length) were used with an An-60 Ti rotor operated at 13,500, 16,000, 17,000, 20,000, 21,000, 24,000, 25,000, 27,500, 30,000 and 35,000 rpm. The cell radii were scanned using 0.001 cm steps with 10 averages/scan. Data were analyzed using Beckman XLA data analysis software (version 3.01 for Windows) and Beckman-Origin software (version 3.78 for Windows). […] The partial specific volumes were held constant for all models considered.
# Single data files were normalized to 270 nm absorbance values using Beer's Law. The data obtained with solutions containing the DP107-like peptides were then analyzed using a single ideal species model to determine a weight-averaged molecular weight (Mw). Diagnostic plots of Mw/Mw0 vs. rpm/rpm0 and Mw vs. radial concentration were used to test for sample homogeneity as described, e.g., by McRorie & Voelker, 1993, Self-Associating Systems in the Analytical Ultracentrifuge, Beckman Instruments, Inc., Palo Alto; and Yphantis et al., 1978, in Physical Aspects of Protein Interactions: Proceedings of the Symposium on Protein Interactions, American Chemical Society Meeting, Catsimpoolas, Ed., pp. 275-303, Elsevier, Miami Beach, Fla. When systematic residuals or a Mw higher than the monomer molecular weight indicated the presence of self-association, associative models such as monomer/trimer, monomer/tetramer and monomer/dimer/tetrarner were investigated. The suitability of a particular model (i.e., the goodness of fit) was judged by the trends observed in the residuals (Johnson & Straume, 1994, in Modern Analytical Ultracentrifugation, Schuster et al., eds., pp. 37-65, Birkhauser, Boston). Using the associative model which produced random residuals when fitting individual data files, a simultaneous, global, weighted fit of multiple data files (up to nine files with different concentrations and speeds) was performed to determine the association constant and 95% confidence intervals. To convert the resulting association constant from absorbance units to concentration units, it was assumed that the absorbance of the n-mer is n times that of the monomer.
# The data obtained with DP107-like/DP178-like peptide mixtures were first analyzed with a single ideal species model. When a systematic trend in residuals coupled with the Mw not equal to a precise multimer of HR1+HR2 were obtained, and alternate fitting scheme was explored. For this approach, it was assumed that the solution contained fully associated HR1-HR2 complexes and unassociated DP107-like and DP178-like peptides. The mixtures were analyzed with a two-ideal species model, choosing one species to have a molecular weight of either 28,269 Da (corresponding to three DP107-like plus three DP178-like peptides) or […] (corresponding to four DP107-like plus four DP178-like peptides).
# [2] = biological target: T1, MBP fusion protein containing the ectodomain of the HIV-1 fusion protein gp41 (M41Δ178) (Human immunodeficiency virus type 1 group M subtype B, UniProt P03377); conditions: control for non-specific binding
# T1 construct: made by cloning the DNA fragment corresponding to gp41 amino acids 540-642 into the Xmn I site of pMal-p2; made in house
# T1 sequence (P03377 540-642, stated change not applied): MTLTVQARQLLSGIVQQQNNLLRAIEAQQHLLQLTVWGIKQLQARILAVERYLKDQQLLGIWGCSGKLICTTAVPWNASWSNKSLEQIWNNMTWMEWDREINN
# Experimental: Mixtures were treated with 5 μg/ml proteinase-K (Sigma, St. Louis, Mo.) or an equivalent volume of buffer, vortexed and then incubated for one hour at 37° C. Phenyl methyl sulfonyl fluoride (PMSF, Boehringer Mannheim, Indianapolis, Ind.) was added to achieve a 2 mM final concentration to stop proteolytic digestion. 20 μl of each sample was removed and added to 10 μl of a sample buffer (New England Biolabs, Boston, Mass.) containing 6 w/v% Sodium Dodecyl Sulfate (DDS), DTT, 187.5 mM TRIS, 30% glycerol and bromophenol blue. The mixtures were heated for five minutes at 90° C. 15 μl of the samples were run on a 10-20% Tricine polyacrylamide gel (Novex, San Diego, Calif.), stained with Coomassie brilliant blue and destained with a 10% methanol-10% acetic acid mixture (Fisher, Norcross, Ga.).
smiles,measurement,setting,value
CC[C@H](C)[C@H](NC(=O)[C@H](Cc1ccccc1)NC(=O)[C@H](C)NC(=O)[C@H](CC(C)C)NC(=O)[C@H](CO)NC(=O)[C@H](CCC(N)=O)NC(=O)[C@H](CC(N)=O)NC(=O)[C@@H](NC(=O)[C@H](CCCCN)NC(=O)[C@H](CCC(=O)O)NC(=O)[C@H](CC(N)=O)NC(=O)[C@@H](NC(=O)[C@H](CCC(N)=O)NC(=O)[C@H](CO)NC(=O)[C@@H](NC(=O)[C@H](CO)NC(=O)[C@H](C)NC(=O)[C@H](CC(=O)O)NC(=O)[C@H](Cc1ccccc1)NC(=O)[C@H](CCC(=O)O)NC(=O)[C@H](CC(=O)O)NC(=O)[C@H](CO)NC(=O)[C@@H]1CCCN1C(=O)[C@H](Cc1ccccc1)NC(=O)[C@@H](NC(C)=O)C(C)C)[C@@H](C)CC)C(C)C)[C@@H](C)CC)C(=O)N[C@@H](CCCNC(=N)N)C(=O)N[C@@H](CCCCN)C(=O)N[C@@H](CO)C(=O)N[C@@H](CC(=O)O)C(=O)N[C@@H](CCC(=O)O)C(=O)N[C@@H](CC(C)C)C(=O)N[C@@H](CC(C)C)C(=O)N[C@@H](Cc1c[nH]cn1)C(=O)N[C@@H](CC(N)=O)C(=O)N[C@H](C(N)=O)C(C)C [Peptide T112],anti-RSV antiviral activity (in words),RSV,substantial antiviral activity
same,oligomerization state in solution (in words),[1],behaves as a monomer
same,Mw value,"[1]; 50 μM, 25,000, 30,000 and 35,000 rpm","3,984 Da"
same,binding to MBP fusion protein containing the HIV-1 gp41 ectodomain,[2],does not bind

# From patent US6623741B1, “Methods and compositions for inhibition of membrane fusion-associated events including RSV transmission” (Trimeris, Inc., priority 2000, dated 2003)
